# In patent US8247170B2, “Detection of penicillin tolerance in Group B Streptococcus: single nucleotide polymorphisms in penicillin binding protein 4” (priority 2008, dated 2012):
# Test system: GBS laboratory strains and clinical isolates
# Experiment: Microbroth (96-well) penicillin tolerance assay
# Assay type: cell-based, Group B Streptococcus
# Settings: for Penicillin Phenotypes: 48 hr penicillin, 24 hr drug free culture; for replication or viability after re-plate and additional 24-hour culture (FIG. 1): penicillin G 1× to 256×MIC90 48 hours
# Description: An in vitro method involving microbroth (96-well) culture was used to develop a penicillin tolerance assay. In this assay, the inventors tested three laboratory bacterial strains (i.e., GBS strains A909, NEM316, and O90R). These cells were commercially obtained from ATCC source. Bacterial cells were cultured overnight for 18 hours at 37° C. in Todd-Hewitt Broth (THB). Subcultures in THB were subsequently grown to exponential phase (OD600˜0.3) at 37° C. Cell cultures were then exposed to different concentrations of penicillin G (Sigma, St. Louis, Mo.). […] Cell cultures were dispersed. A dilution (i.e., 1 to 20) of cells was re-plated into new wells containing fresh THB with 500 U Penase (to destroy residual penicillin). Cell cultures were allowed to grow for an additional 24 hours at 37° C. Assays were repeated four (4) times and standard bar represents standard deviations.
# Using this established 96-well assay (i.e., microbroth assay), 115 clinical isolates of GBS were further tested. These were cervico-vaginal rectal clinical isolates (obtained from pregnant humans), and characterized their penicillin tolerance. The phenotype definitions (above) were used to identify the penicillin tolerant isolates.
# (I) Bacterial Strains and Culture Conditions. GBS strains A909 (serotype IA), 515 (serotype IA), NEM316 (serotype III), COHI (serotype III), 2603V/R (serotype V) and O90R (non-typable) were used in this study. E. coli Top10 cells were used for the recombination experiments. GBS was cultured in Todd Hewitt broth (THB) or Tryptic Soy 5% sheep blood (TS) media and E. coli in Luria-broth (LB) medium or agar. Antibiotics were used at the following concentrations: for GBS—penicillin G (MIC90 0.06 μg ml^−1), ampicillin (MIC90 0.12 μg ml^−1), vancomycin (MIC90 2 μg ml^−1), cefazolin (MIC90 1 μg ml^−1) and chloramphenicol (5 μg ml^−1); for E. coli—ampicillin (50 μg ml^−1) and chloramphenicol (5 μg ml^−1). Both GBS and E. coli cultures were grown at 37° C. (II) Tolerance Using the MBC:MIC Ratio Method. Three GBS laboratory strains (i.e., A909, NEM316, and O90R) were cultured overnight for 18 h at 37° C. in THB. Subcultures in THB were subsequently grown to exponential phase (OD600˜0.3; i.e. 5×10^5 cfu/ml) at 37° C. Cell cultures were then exposed to different concentrations of antibiotics (Penicillin G, Ampicillin, Cefozolin or Vancomycin). […] Cell cultures were dispersed every 18 h before OD600 was measured to determine the lowest concentration of antibiotic with 90% growth inhibition (MIC90). Antibiotic treated cells (8 μl) from each well were re-suspended into PBS (100 μl) and plated (54 μl) on TS agar plates and allowed to grow for an additional 24 h at 37° C. Cell count was performed to determine the lowest concentration of antibiotic with 90% killing of original inoculums (MBC90). (III) Penicillin Killing and Regrowth Tolerance Assay by Microbroth Dilution. Three GBS laboratory strains (i.e., A909, NEM316, and O90R) were cultured overnight for 18 h at 37° C. in THB. Subcultures in THB were subsequently grown to exponential phase (OD600˜0.3) at 37° C. Cell cultures were then exposed to different concentrations of Penicillin G (Sigma, St. Louis, Mo.). […] Cell cultures were dispersed. A 1:20 dilution of cells was re-plated into new wells containing fresh THB with 500 U Penase (to degrade residual penicillin). Cell cultures were allowed to re-grow for an additional 24 h at 37° C. before the OD600 was measured. (IV) Measuring Cell Viability by Determining ATP Concentration. GBS strains were cultured for 18 h at 37° C. in THB. These cells were inoculated into fresh THB and subsequently allowed to grow to exponential phase (OD600 0.25-0.3) at 37° C. One ml of each culture was centrifuged at 5,000×g for 4 min. The cell pellet was re-suspended in ATP-free water. Cellular ATP was extracted using trichloroacetic acid (TCA) (5%) for 2 min and subsequently neutralized with Tris-EDTA-0.1M NaOAc, pH 7.75 to 10×TCA volume. […]
smiles,measurement,setting,value
CC1(C)S[C@@H]2[C@H](NC(=O)Cc3ccccc3)C(=O)N2[C@H]1C(=O)O [Penicillin G],"% GBS Clinical Strains, Intermediate",115 clinical isolates,8%
same,"% GBS Clinical Strains, Paradoxical Effect-Penicillin Tolerance (PE-PT)",115 clinical isolates,27%
same,"% GBS Clinical Strains, Penicillin Tolerance (PT)",115 clinical isolates,16%
same,"% GBS Clinical Strains, Susceptible (S)",115 clinical isolates,49%
same,Penicillin Phenotypes,GBS laboratory strain A909,Susceptible (S)
same,Penicillin Phenotypes,GBS laboratory strain NEM316,Paradoxical Effect-Penicillin Tolerance (PE-PT)
same,Penicillin Phenotypes,GBS laboratory strain O90R,Penicillin Tolerance (PT)
same,replication or viability after re-plate and additional 24-hour culture (FIG. 1),GBS strain A909,did not replicate
same,replication or viability after re-plate and additional 24-hour culture (FIG. 1),"GBS strain NEM316, viability lost at 16× to 64×MIC90",paradoxical effect
same,replication or viability after re-plate and additional 24-hour culture (FIG. 1),GBS strain O90R,did not inhibit the replication or viability
